# Laboratory results taken from patent US9371363B2, “Peptides and their use” (Novabiotics Limited, priority 2007, dated 2016).
# Where no end group is shown, it is not given here.
# Tested on: P. acnes
# Assay type: cell-based
# Conditions: not given
# Protocol: (§1) Broth Dilution Antibacterial Susceptibility Testing
# (§2) The sensitivity of relevant bacterial strains to the peptides (was determined using Clinical Laboratory Standard Institute (CLSI; formerly NCCLS) Approved Standards. Bacterial susceptibility was tested using “Methods for Dilution Antimicrobial Susceptibility Tests for Bacteria That Grow […]; Approved Standard—Seventh Edition M7-A7”
row,Compound,"Minimum Inhibitory Concentration, antimicrobial activity, P. acnes [mM]"
1,"N=C(N)NCCC[C@H](NC(=O)[C@H](CCCNC(=N)N)NC(=O)[C@H](CCCNC(=N)N)NC(=O)[C@H](CCCNC(=N)N)NC(=O)[C@H](CCCNC(=N)N)NC(=O)[C@H](CCCNC(=N)N)NC(=O)[C@H](CCCNC(=N)N)NC(=O)[C@H](CCCNC(=N)N)NC(=O)[C@H](CCCNC(=N)N)NC(=O)[C@H](CCCNC(=N)N)NC(=O)[C@H](CCCNC(=N)N)NC(=O)[C@H](CCCNC(=N)N)NC(=O)[C@@H](N)CCCNC(=N)N)C(=O)O [NP318, RRRRRRRRRRRRR (SEQ ID NO: 14)]",<0.0156
2,"N=C(N)NCCC[C@H](NC(=O)[C@H](CCCNC(=N)N)NC(=O)[C@H](CCCNC(=N)N)NC(=O)[C@H](CCCNC(=N)N)NC(=O)[C@H](CCCNC(=N)N)NC(=O)[C@H](CCCNC(=N)N)NC(=O)[C@H](CCCNC(=N)N)NC(=O)[C@H](CCCNC(=N)N)NC(=O)[C@H](CCCNC(=N)N)NC(=O)[C@H](CCCNC(=N)N)NC(=O)[C@H](CCCNC(=N)N)NC(=O)[C@H](CCCNC(=N)N)NC(=O)[C@@H](N)CCCNC(=N)N)C(=O)O [NP337, RRRRRRRRRRRRR (SEQ ID NO: 31)]",0.0025
3,"KKKKKKKKK [NP345, KKKKKKKKK (SEQ ID NO: 33)]",2.5
4,"RRRRVVRRRR [NP310, RRRRVVRRRR (SEQ ID NO: 10)]",0.5
5,"RRVRRVRR [NP309, RRVRRVRR (SEQ ID NO: 9)]",1
6,"RRVVRRVVRR [NP311, RRVVRRVVRR (SEQ ID NO: 11)]",2

# Same assay, conditions: P. acnes; CLSI broth dilution
row,Compound,"Minimum Inhibitory Concentration, antimicrobial activity, P. acnes [mM]"
1,"N=C(N)NCCC[C@H](NC(=O)[C@H](CCCNC(=N)N)NC(=O)[C@H](CCCNC(=N)N)NC(=O)[C@H](CCCNC(=N)N)NC(=O)[C@H](CCCNC(=N)N)NC(=O)[C@H](CCCNC(=N)N)NC(=O)[C@H](CCCNC(=N)N)NC(=O)[C@H](CCCNC(=N)N)NC(=O)[C@@H](N)CCCNC(=N)N)C(=O)O [NP316, RRRRRRRRR (SEQ ID NO: 12)]",0.0313
2,KKKKKKKKKKKKKKK [NP348],0.0625

# Same assay, conditions: P. acnes; values marked * in mg/ml
row,Compound,"Minimum Inhibitory Concentration, antimicrobial activity, P. acnes"
1,"(H)n, n = 32-161 [NP131]",>0.1* mg/ml
2,"(H)n, n = >32 [NP132]",0.1* mg/ml
3,"(K)n, n = 3-14 [NP112]",0.1* mg/ml
4,"(K)n, n = 7-34 [NP106]",0.125* mg/ml
5,"(R)n, n = 86-402 [NP122]",0.01* mg/ml
6,"(R)n, n = >402 [NP123]",0.01* mg/ml

# Tested on: S. aureus
# Assay type: cell-based
# Conditions: not given
# Protocol: as §1, §2
row,Compound,"Minimum Inhibitory Concentration, antimicrobial activity, S. aureus [mM]"
1,"N=C(N)NCCC[C@H](NC(=O)[C@H](CCCNC(=N)N)NC(=O)[C@H](CCCNC(=N)N)NC(=O)[C@H](CCCNC(=N)N)NC(=O)[C@H](CCCNC(=N)N)NC(=O)[C@H](CCCNC(=N)N)NC(=O)[C@H](CCCNC(=N)N)NC(=O)[C@H](CCCNC(=N)N)NC(=O)[C@H](CCCNC(=N)N)NC(=O)[C@H](CCCNC(=N)N)NC(=O)[C@@H](N)CCCNC(=N)N)C(=O)O [NP317, RRRRRRRRRRR (SEQ ID NO: 13)]",0.25
2,"N=C(N)NCCC[C@H](NC(=O)[C@H](CCCNC(=N)N)NC(=O)[C@H](CCCNC(=N)N)NC(=O)[C@H](CCCNC(=N)N)NC(=O)[C@H](CCCNC(=N)N)NC(=O)[C@H](CCCNC(=N)N)NC(=O)[C@H](CCCNC(=N)N)NC(=O)[C@H](CCCNC(=N)N)NC(=O)[C@H](CCCNC(=N)N)NC(=O)[C@H](CCCNC(=N)N)NC(=O)[C@H](CCCNC(=N)N)NC(=O)[C@H](CCCNC(=N)N)NC(=O)[C@@H](N)CCCNC(=N)N)C(=O)O [NP318, RRRRRRRRRRRRR (SEQ ID NO: 14)]",0.125
3,"N=C(N)NCCC[C@@H](N)C(=O)N[C@H](CCCNC(=N)N)C(=O)N[C@H](CCCNC(=N)N)C(=O)N[C@H](CCCNC(=N)N)C(=O)N[C@H](CCCNC(=N)N)C(=O)N[C@H](CCCNC(=N)N)C(=O)N[C@H](CCCNC(=N)N)C(=O)N[C@H](CCCNC(=N)N)C(=O)N[C@H](CCCNC(=N)N)C(=O)N[C@H](CCCNC(=N)N)C(=O)N[C@H](CCCNC(=N)N)C(=O)N[C@H](CCCNC(=N)N)C(=O)N[C@H](CCCNC(=N)N)C(N)=O [NP341, dRdRdRdRdRdRdRdRdRdRdRdRdR—CONH (SEQ ID NO: 31)]",0.125
4,"GKKEKPEKKVKK [NP331, GKKEKPEKKVKK (SEQ ID NO: 25)]",>2
5,"KKKDKVKK [NP334, KKKDKVKK (SEQ ID NO: 28)]",>2
6,KKKKKEGKKQEKMLD [NP333],>2
7,KLTKPKPQAESKKKKK [NP332],>2
8,"KVRQGTLKKAR [NP335, KVRQGTLKKAR (SEQ ID NO: 29)]",>2
9,PKTKAKAKAKKGKGKD [NP336],>2
10,"RRRRVVRRRR [NP310, RRRRVVRRRR (SEQ ID NO: 10)]",>2
11,"RRRVRRR [NP306, RRRVRRR (SEQ ID NO: 6)]",>2
12,"RRRVVRRR [NP308, RRRVVRRR (SEQ ID NO: 8)]",>2
13,"RRRWRRR [NP325, RRRWRRR (SEQ ID NO: 21)]",>2
14,"RRVRR [NP303, RRVRR (SEQ ID NO: 3)]",>2
15,"RRVRVR [NP304, RRVRVR (SEQ ID NO: 4)]",>2
16,"RRVRVRR [NP307, RRVRVRR (SEQ ID NO: 7)]",>2
17,"RRVVR [NP302, RRVVR (SEQ ID NO: 2)]",>2
18,"RRVVRR [NP305, RRVVRR (SEQ ID NO: 5)]",>2
19,"RRVVRRVVRR [NP311, RRVVRRVVRR (SEQ ID NO: 11)]",>2
20,"RRWRR [NP322, RRWRR (SEQ ID NO: 18)]",>2
21,"RRWRRWRR [NP328, RRWRRWRR (SEQ ID NO: 24)]",>2
22,"RRWRWR [NP323, RRWRWR (SEQ ID NO: 19)]",>2
23,"RRWRWRR [NP326, RRWRWRR (SEQ ID NO: 22)]",>2
24,"RRWWR [NP321, RRWWR (SEQ ID NO: 17)]",>2
25,"RRWWRR [NP324, RRWWRR (SEQ ID NO: 20)]",1
26,"RVRVR [NP301, RVRVR (SEQ ID NO: 1)]",>2
27,"RWRWR [NP320, RWRWR (SEQ ID NO: 16)]",>2

# Same assay, conditions: S. aureus; CLSI broth dilution
row,Compound,"Minimum Inhibitory Concentration, antimicrobial activity, S. aureus [mM]"
1,KKKKKKKKKKKKKKK [NP348],0.25

# Same assay, conditions: S. aureus; values marked * in mg/ml
row,Compound,"Minimum Inhibitory Concentration, antimicrobial activity, S. aureus"
1,"(H)n, n = 32-161 [NP131]",>2* mg/ml

# Tested on: Ps. aeruginosa
# Assay type: cell-based
# Conditions: not given
# Protocol: as §1, §2
row,Compound,"Minimum Inhibitory Concentration, antimicrobial activity, Ps. aeruginosa [mM]"
1,"N=C(N)NCCC[C@H](NC(=O)[C@H](CCCNC(=N)N)NC(=O)[C@H](CCCNC(=N)N)NC(=O)[C@H](CCCNC(=N)N)NC(=O)[C@H](CCCNC(=N)N)NC(=O)[C@H](CCCNC(=N)N)NC(=O)[C@H](CCCNC(=N)N)NC(=O)[C@H](CCCNC(=N)N)NC(=O)[C@H](CCCNC(=N)N)NC(=O)[C@H](CCCNC(=N)N)NC(=O)[C@@H](N)CCCNC(=N)N)C(=O)O [NP350, RRRRRRRRRRR (SEQ ID NO: 13)]",0.125
